Numbered stars: 1 amine (or outer) side, 2 acyl side, 3 side chain; on linkers, the order of the positions; unused ones are H or OH. Square brackets hold non-standard residues; d marks the D form. Side chains are listed from the residue outwards. Peptide text beside a SMILES is read from it. * marks the point of attachment. DOTA(Lu)NH(CH2)6NHCOCH2 = O=C(CN1CCN2CCN3CCN(CC1)CC(=O)[O][Lu]([O]C(=O)C2)[O]C(=O)C3)NCCCCCCNC(=O)C*; DOTA(Lu) = O=C1CN2CCN3CCN(CC(=O)*)CCN(CC2)CC(=O)[O][Lu]([O]1)[O]C(=O)C3; Ala(piperidin-4-yl) = O=C([C@H](CC1CCN([*:3])CC1)N[*:1])[*:2]; DOTA = O=C(O)CN1CCN(CC(=O)O)CCN(CC(=O)*)CCN(CC(=O)O)CC1; dTrp(βS-Me) = C[C@@H](c1c[nH]c2ccccc12)[C@@H](N)C(=O)O; dTrp(4-Me) = Cc1cccc2[nH]cc(C[C@@H](N)C(=O)O)c12; Phe(3R-Me) = C[C@H](c1ccccc1)[C@H](N)C(=O)O; Tyr(3-F) = N[C@@H](Cc1ccc(O)c(F)c1)C(=O)O; X22 = O=C([C@H](Cc1ccc(O)nc1)N[*:1])[*:2]; Ethylenediamine = C(CN[*:2])N[*:1]; Hyp = O=C(O)[C@@H]1C[C@@H](O)CN1; NMehLys = CN[C@@H](CCCCCN)C(=O)O; 4Pal = N[C@@H](Cc1ccncc1)C(=O)O; Lys(Me) = CNCCCC[C@H](N)C(=O)O; dPhg = N[C@@H](C(=O)O)c1ccccc1; NMehCys = CN[C@@H](CCS)C(=O)O; NMeK = CN[C@@H](CCCCN)C(=O)O; CO = O=C([*:1])[*:2]; Bn = c1ccc(C*)cc1
These molecules were tested against SSTR2 (Homo sapiens, UniProt P30874) (assay: SSTR binding affinity by radioligand binding competition assay ([125I]-Tyr11-Somatostatin, membrane extracts)). Settings: radioligand competition, [125I]-Tyr11-Somatostatin 0.1 nM, membrane extracts; Ki from IC50 by Cheng Prusoff; read-out: SSTR2 Ki.
Sequence of SSTR2 (P30874 whole entry): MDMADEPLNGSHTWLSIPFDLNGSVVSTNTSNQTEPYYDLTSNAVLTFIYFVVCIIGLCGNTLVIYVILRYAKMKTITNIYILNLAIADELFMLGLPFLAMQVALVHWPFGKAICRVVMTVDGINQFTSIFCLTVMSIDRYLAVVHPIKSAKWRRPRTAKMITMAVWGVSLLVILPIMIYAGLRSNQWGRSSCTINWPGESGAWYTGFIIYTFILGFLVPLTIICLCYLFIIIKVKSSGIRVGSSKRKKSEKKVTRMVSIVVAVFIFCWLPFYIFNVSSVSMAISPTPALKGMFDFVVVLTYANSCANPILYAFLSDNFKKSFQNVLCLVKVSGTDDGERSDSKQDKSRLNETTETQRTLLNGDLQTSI
Experimental: Macrocyclic peptides in this invention were tested for binding to SSTR protein by a radioligand binding competition assay. For radioligand binding assay, competition binding is performed in duplicate in the wells of a 96 well plate containing binding buffer (HEPES 25 mM pH 7.4, MgCl2 5 mM, CaCl2 1 mM, BSA 0.5%, Saponine 10 μg/ml)), membrane extracts (0.6 μg protein/well), radiotracer ([125I]-Tyr11-Somatostatin, Perkin Elmer NEX389) and test compound. Nonspecific binding is determined by co-incubation with 200-fold excess of cold competitor (SST28). The samples are incubated in a final volume of 0.1 ml for 60 min at room temperature and then filtered over UniFilter-96 GF/C (Revvity 6055690) filter plates. Filters are washed six times with 0.5 ml of ice-cold washing buffer (HEPES 25 mM pH 7.4, MgCl2 5 mM, CaCl2 1 mM) and 50 μl of Microscint 20 (Packard) are added in each well. The plates are incubated 15 min on an orbital shaker and then counted with a TopCount™ for 1 min/well. For IC50 to Ki determination, the Cheng Prusoff equation is used: Ki=IC50/(1+ [tracer]/Kd). [Tracer] is 0.1 nM as mentioned above.
Molecule `Cc1cccc2[nH]cc(C[C@H]3NC(=O)[C@H](Cc4ccc(O)cc4)NC(=O)[C@H](CCSCC(=O)NCCCCCCNC(=O)CN4CCN5CCN6CCN(CC4)CC(=O)[O][Lu]([O]C(=O)C5)[O]C(=O)C6)N(C)C(=O)[C@H](Cc4ccccc4)NC(=O)[C@H]([C@@H](C)O)NC(=O)[C@H](CC4CCNCC4)NC3=O)c12` [RB-0006073] (cyclo(F[NMehCys](DOTA(Lu)NH(CH2)6NHCOCH2)Y[dTrp(4-Me)][Ala(piperidin-4-yl)]T)) has a Ki of 3.33 to 10 nM. `C[C@H](c1ccccc1)[C@@H]1NC(=O)[C@H](CCSCC(=O)NCCCCCCNC(=O)CN2CCN3CCN4CCN(CC2)CC(=O)[O][Lu]([O]C(=O)C3)[O]C(=O)C4)N(C)C(=O)[C@H](Cc2ccccc2)NC(=O)[C@H]([C@@H](C)O)NC(=O)[C@H](CCCCN)NC(=O)[C@@H](Cc2c[nH]c3ccccc23)NC1=O` [RB-0003137] (cyclo(F[NMehCys](DOTA(Lu)NH(CH2)6NHCOCH2)[Phe(3R-Me)][dW]KT)) gave a Ki of under 1 nM. Molecule `C[C@@H](O)[C@@H]1NC(=O)[C@H](CCCCN)NC(=O)[C@@H](Cc2c[nH]c3ccccc23)NC(=O)[C@H](Cc2ccc(O)c(F)c2)NC(=O)[C@H](CCSCC(=O)NCCCCCCNC(=O)CN2CCN3CCN4CCN(CC2)CC(=O)[O][Lu]([O]C(=O)C3)[O]C(=O)C4)N(C)C(=O)[C@H](Cc2ccccc2)NC1=O` [RB-0003280] (cyclo(F[NMehCys](DOTA(Lu)NH(CH2)6NHCOCH2)[Tyr(3-F)][dW]KT)) has a Ki of under 1 nM. `C[C@@H](O)[C@@H]1NC(=O)[C@H](CCCCN)NC(=O)[C@@H](Cc2c[nH]c3ccccc23)NC(=O)[C@H](Cc2ccc(O)cc2)NC(=O)[C@H](C2CCN(C(=O)CCCCCNC(=O)CN3CCN4CCN5CCN(CC3)CC(=O)[O][Lu]([O]C(=O)C4)[O]C(=O)C5)CC2)N(C)C(=O)[C@H](Cc2ccccc2)NC1=O` [RB-0005852] was tested, and the Ki was 33.3 to 100 nM. `C[C@@H](O)[C@@H]1NC(=O)[C@H](CCCCN)NC(=O)[C@@H](Cc2c[nH]c3ccccc23)NC(=O)[C@H](Cc2ccncc2)NC(=O)[C@H](CCSCC(=O)NCCCCCCNC(=O)CN2CCN3CCN4CCN(CC2)CC(=O)[O][Lu]([O]C(=O)C3)[O]C(=O)C4)N(C)C(=O)[C@H](Cc2ccc(O)nc2)NC1=O` [RB-0003451] (cyclo([4Pal][dW]KT[X22][NMehCys](DOTA(Lu)NH(CH2)6NHCOCH2))) showed a Ki of 3.33 to 10 nM. For `C[C@@H](O)[C@@H]1NC(=O)[C@H](CC2CCNCC2)NC(=O)[C@@H]([C@@H](C)c2c[nH]c3ccccc23)NC(=O)[C@H](Cc2ccc(O)cc2)NC(=O)[C@H](CCCCCNC(=O)CN2CCN3CCN4CCN(CC2)CC(=O)[O][Lu]([O]C(=O)C3)[O]C(=O)C4)N(C)C(=O)[C@H](Cc2ccccc2)NC1=O` [RB-0006449] (cyclo(F[NMehLys](DOTA(Lu))Y[dTrp(βS-Me)][Ala(piperidin-4-yl)]T)), the Ki was under 1 nM. `CNCCCC[C@@H]1NC(=O)[C@@H]([C@@H](C)c2c[nH]c3ccccc23)NC(=O)[C@H](Cc2ccc(O)cc2)NC(=O)[C@H](CCCCNC(=O)CN2CCN3CCN4CCN(CC2)CC(=O)[O][Lu]([O]C(=O)C3)[O]C(=O)C4)N(C)C(=O)[C@H](Cc2ccccc2)NC(=O)[C@H]([C@@H](C)O)NC1=O` [RB-0006174] (cyclo(F[NMeK](DOTA(Lu))Y[dTrp(βS-Me)][Lys(Me)]T)) gave a Ki of under 1 nM. `C[C@@H](O)[C@@H]1NC(=O)[C@H](CC2CCNCC2)NC(=O)[C@@H]([C@@H](C)c2c[nH]c3ccccc23)NC(=O)[C@H](Cc2ccc(O)cc2)NC(=O)[C@H](CCCCNC(=O)CN2CCN3CCN4CCN(CC2)CC(=O)[O][Lu]([O]C(=O)C3)[O]C(=O)C4)N(C)C(=O)[C@H](CO)NC1=O` [RB-0006166] (cyclo([NMeK](DOTA(Lu))Y[dTrp(βS-Me)][Ala(piperidin-4-yl)]TS)) showed a Ki of 33.3 to 100 nM.

Same assay, conditions: read-out: SSTR2 Ki
`CC(=O)NCCCC[C@@H]1C(=O)N[C@@H](Cc2ccc(O)cc2)C(=O)N[C@H](Cc2c[nH]c3ccccc23)C(=O)N[C@@H](CCCCN)C(=O)N[C@@H](C(C)C)C(=O)N[C@@H](Cc2ccccc2)C(=O)N1C` [RB-0002593] (HELM PEPTIDE1{F.[CN([C@H](CCCCN[*:3])C(=O)[*:2])[*:1]].Y.[dW].K.V}|PEPTIDE2{[ac]}$PEPTIDE1,PEPTIDE2,2:R3-1:R2|PEPTIDE1,PEPTIDE1,1:R1-6:R2$$$V2.0) was tested, and the Ki was 3.33 to 10 nM.

Same assay, conditions: read-out: SSTR2 Ki; radioligand competition, [125I]-Tyr11-Somatostatin 0.1 nM, membrane extracts; Ki from IC50 by Cheng Prusoff
`C[C@@H](c1c[nH]c2ccccc12)[C@H]1NC(=O)[C@@H](c2ccccc2)NC(=O)[C@@H]2C[C@@H](OC(=O)NCCNC(=O)CN3CCN(CC(=O)O)CCN(CC(=O)O)CCN(CC(=O)O)CC3)CN2C(=O)[C@H](Cc2ccccc2)NC(=O)[C@H](Cc2ccc(OCc3ccccc3)cc2)NC(=O)[C@H](CC2CCNCC2)NC1=O` [RB-0006391] (cyclo(F[Hyp]([CO-Ethylenediamine-DOTA])[dPhg][dTrp(βS-Me)][Ala(piperidin-4-yl)]Y(Bn))) was tested, and the Ki was 33.3 to 100 nM.

From patent US20250222146A1, “Radiopharmaceuticals Targeting Somatostatin Receptor 2 and Uses Thereof” (RayzeBio, Inc., priority 2023, published 2025)
